According to US10426773B2, “Systems pharmacology for treating ocular disorders” (Case Western Reserve Univeristy, priority 2011, dated 2019):
“Also recorded” adds a separate entry of the source. Where two headings read alike, the source gives them in different places.

How the values were obtained:
[1] = tested on: ROS generation in photoreceptors of Abca4−/−Rdh8−/− mice; assay: In vivo detection of ROS (DHE probe) in retinas of light-exposed Abca4−/−Rdh8−/− mice; design: species or system mouse; conditions: for ROS production in the ONL / photoreceptors (DHE signal): Example 1, pretreatment before light 10,000 lux 30 min, retinas 3 h after illumination; for ROS generation in photoreceptors (DHE signal): Example 3, DOX 10 mg/kg, GUB 2.0 mg/kg, SQ 0.5 mg/kg ip 30 min prior to light
Description: The ROS probe, DHE, at a dose of 20 mg/kg body weight was administered to Abca4^−/−Rdh8^−/− mice via intraperitoneal injection 30 min prior to light exposure. Eye cups obtained after removing the cornea, lens and vitreous body from enucleated eye globes 3 h post light illumination were fixed in 4% paraformaldehyde. Cryosections were prepared from fixed eye cups and cut at 12 am thickness for microscopic assessment of ROS signal fluorescence in the retina.
The ROS probe, DHE, at a dose of 20 mg/kg body weight in 25 μl of DMSO, was administered to Abca4^−/−Rdh8^−/− mice via intraperitoneal injection 1 h prior to light exposure. Eye cups obtained after removing the cornea, lens, and vitreous body from enucleated eye globes 3 h post light illumination were fixed in 4% paraformaldehyde. Cryosections were prepared from fixed eye cups and cut at 12-am thickness for microscopic assessment of ROS fluorescence in the retina with ImageJ software (National Institutes of Health).

[2] = tested on: Abca4−/−Rdh8−/− mice; assay: Bright light-induced retinal degeneration in Abca4−/−Rdh8−/− mice, retinal histology and immunohistochemistry; type: in vivo, mouse; conditions: pretreatment before light 10,000 lux 30 min; 7-10 days after light exposure
Description: Retinal histology and immunohistochemistry (IHC) was performed as previously described. Briefly, eye cups free of cornea, lens and vitreous body were fixed in 2% glutaraldehyde/4% paraformaldehyde and processed for Epon embedding. Sections 1 am thick were cut and stained with toluidine blue for histological examination under a light microscope. IHC analysis was performed on 12 am thick cryosections prepared from 4% paraformaldehyde-fixed eye cups. Collected cryosections were subjected to examination for rhodopsin, PNA and DAPI expression.
Retinal immunohistochemistry (IHC) was carried out as previously described. Briefly, eyes were enucleated and eye cups were made to eliminate cornea, lens and vitreous body and fixed in 4% paraformaldehyde and processed for cryosectioning. 12 am thick cryosections were collected cryosections and subjected to examination for rhodopsin, peanut agglutinin lectin (PNA) and DAPI expression.
Retinal immunohistochemistry (IHC) was performed as previously described. Briefly, eyes were enucleated and, after removal of the cornea, lens and vitreous body, eye cups were fixed in 4% paraformaldehyde and processed for cryosectioning. Twelve μm thick cryosections were cut, collected and examined for rhodopsin expression, peanut agglutinin lectin (PNA) for cone sheath and nuclear DAPI staining. […]

[3] = tested on: Abca4−/−Rdh8−/− mice; conditions: mouse, in vivo
[4] = tested on: ARPE19 cells; assay: In vitro detection and quantification of intracellular ROS in ARPE19 cells (DCF-DA / DHE probes); type: cell-based, human; conditions: for intracellular ROS production: retinoid applied to cultured ARPE19 cells, ROS probe DCF-DA or DHE
Description: ARPE19 cells were cultured in Dulbecco's Modified Eagle's Medium (DMEM) (low glucose) supplemented with 10% fetal bovine serum. The ROS probes, 2′,7′-dichlorofluorescein diacetate (DCF-DA, Sigma, St. Louis, Mo.) or dihydroethidium (DHE, Invitrogen Corporation, Carlsbad, Calif.) were added after indicated pretreatments and incubated at 37° C. for 10-min before thorough washing in PBS and the ROS signals were subsequently observed at the same exposure setting under an inverted fluorescence microscope (Leica DMI 6000 B). Fluorescence quantification was performed with Metamorph imaging software (Molecular Devices, Downington, Pa.). Thresholds corresponding to fluorescent signals were set from the images and average fluorescence intensities were recorded for statistical analysis.

[5] = tested on: ARPE19 cells
[6] = tested on: Abca4−/−Rdh8−/− mice; assay: Bright light-induced retinal degeneration in Abca4−/−Rdh8−/− mice, OCT imaging of retinal structure; type: in vivo, mouse; conditions: for retinal / photoreceptor morphology by OCT imaging: pretreatment before light 10,000 lux 30 min, OCT 7 days after light exposure
[7] = tested on: Abca4−/−Rdh8−/− mice; assay: Bright light-induced retinal degeneration in Abca4−/−Rdh8−/− mice, ERG retinal function; conditions: pretreatment before light 10,000 lux 30 min, ERG 7 days to 2 weeks after
[8] = tested on: Abca4−/−Rdh8−/− mice; assay: Bright light-induced retinal degeneration in Abca4−/−Rdh8−/− mice, SLO autofluorescence imaging; type: in vivo, mouse; conditions: pretreatment before light 10,000 lux 30 min; SLO 8-9 days after light exposure
Description: SLO (Heidelberg Engineering, Heidelberg, Germany) was carried out for whole fundus imaging of mouse retinas. Mice were anesthetized by intraperitoneal injection of anesthetic cocktail indicated above, which was followed by pupil dilation using 1% tropicamide prior to SLO imaging under autofluorescence mode.
(§1) SLO (Heidelberg Engineering) was carried out for in vivo whole fundus imaging of mouse retinas. […] Numbers of autofluorescent spots were counted and subjected to statistical analyses as described below.
SLO (Heidelberg Engineering) was carried out for whole fundus imaging of mouse retinas in vivo. Mice were anesthetized, and their pupils were dilated as described above. SLO images were then acquired in the autofluorescence mode.

[9] = tested on: BALB/c mice; assay: Light-induced retinal degeneration in BALB/c mice, retinal morphology (OCT, histology, IHC); type: in vivo, mouse; conditions: ip pretreatment 30 min before 10,000 lux, 7 days after light
[10] = tested on: BALB/c mice; assay: Light-induced retinal degeneration in BALB/c mice, SLO autofluorescence imaging; type: in vivo, mouse; conditions: DOX 10, GUB 2.0, SQ 0.5 mg/kg, 7 days after light
Description: as §1
These drugs were administered to 4-week-old BALB/c mice by intraperitoneal injection 30 min prior to white light exposure at 10,000 lux for 1 h. Retinal morphology was assessed 7 days after light exposure by OCT imaging and histological examination.

[11] = Quantification of selected drugs in mouse serum and eye by LC-MS; type: in vivo, C57BL/6J WT mice; conditions: for Eye ± SD / concentration at 30 min: 30 min after a single ip dose: DOX 10, GUB 2, SQ 0.5 mg per kilogram; for Eye ± SD: mice perfused with PBS; for concentration at 30 min: C57BL/6J, mouse, serum, intraperitoneal, read-out: Serum ± SD; for amount in eye compared with level in 0.1 mL of serum: eye volume taken as about 0.1 mL
Description: C57BL/6J WT mice at 6 weeks of age (Jackson Laboratory) were treated with DOX, GUB, or SQ at a single dose of 10, 2, and 0.5 mg per kilogram, respectively. The compound was dissolved in 50% DMSO in PBS (137 mM NaCl, 2.7 mM KCl, 0.67 mM […]). Next, to precipitate excess proteins, 0.3 ml of methanol was added to both the eye homogenate and 0.1 ml of serum. Samples were vortexed for 30 s followed by centrifugation for 15 min at 16,000 g. Clear supernatants were collected and used directly for LC-MS analysis. 2HPO4/KH2PO4, pH 7.4) and administrated by intraperitoneal injection. Thirty minutes later the mice were anesthetized. Blood samples were collected using the technique of cardiac puncture and subsequently centrifuged (5 min, 16,000 g) to collect serum. Prior to harvesting eyes, mice were intracardially perfused with PBS to minimalize blood contamination. Eye balls were immediately homogenized in 0.1 ml of PBS. The homogenate and serum samples were spiked with 100 pmols of internal standard (IS) (parazosin—2-[4-(2-furoyl)piperazin-1-yl]-6,7-dimethoxyquinazolin-4-amine (Sigma Aldrich) or clenbuterol—(RS)-1-(4-Amino-3,5-dichlorophenyl)-2-(tert-butylamino)ethanol (Sigma Aldrich)) for DOX, GUB or SQ quantification, respectively.
Mass spectrometry (MS) based detection and quantification of DOX, GUB, and SQ was performed with a L×Q linear ion trap mass spectrometer (Thermo Scientific) equipped with an electrospray ionization (ESI) interface and coupled to Agilent 1100 HPLC (Agilent Technologies). Separation of drugs and the internal standards was achieved on a reverse phase C18 Phenomenex HPLC column (250×4.60 mm; 5 μm) by a linear gradient of to 100% acetonitrile in water within 15 min at flow rate of 0.5 ml/min. All solvents contained 0.1% formic acid (v/v). The HPLC effluent was sprayed into the MS via an ESI probe operated in the positive ionization mode. Parameters of ionization and detection were tuned with synthetic standards for the drugs to achieve the highest possible sensitivity. Dox and parazosin (internal standard) were detected by selected reaction monitoring (SRM) using m/z 452.2→344.2 and 384.2→247.1 transitions whereas GUB, SQ and their corresponding IS, clenbuterol, was by fragmentation at m/z 231.1→214.0, 206.1→136.0, and 277.1→259.1, respectively. The elution times for DOX, GUB, and SQ were ˜12.8, 12.3, and 10.8 min, respectively. Both internal standards eluted at 12.0 min (FIG. 34). Calibration curves were calculated based on the linear relationship between ratios of SRM ion intensity peak area corresponding to the selected drug and the IS vs. molar ratios of the compounds in the range of 20-500 pmol (FIG. 34H).

[12] = tested on: visual pigment regeneration; assay: Effect on chromophore regeneration (ERG responses and 11-cis-retinal levels after bleaching); type: in vivo; conditions: SQ treatment
Source text: It is also worth noting that rhodopsin could be a central player in light-induced retinal degeneration, and that reduced amounts of rhodopsin protect the retina from light-induced degeneration. Therefore we examined the potential impact of the AC inhibitor SQ on chromophore regeneration given that AC is the central player in our newly identified GPCR signaling implicated in light-induced retinopathy (FIG. 1). […] Therefore, the possibility of an acute effect of pharmacological compounds on phototransduction could be ruled out.

[13] = retinoid alone, at the doses examined

NCCOB(c1ccccc1)c1ccccc1 [2-APB, 2-aminoethoxydiphenyl borate]
ROS production in the ONL / photoreceptors (DHE signal) [1]: reduced ROS production | retinal histology / immunohistochemistry (rhodopsin, PNA, DAPI; ONL) [2]: significantly preserved retinal morphology | retinal function by ERG (a-wave and b-wave amplitudes) [3]: protective effect

CC1=C(/C=C/C(C)=C/C=C/C(C)=C/c2cc(/C=C/C=C(C)/C=C/C3=C(C)CCCC3(C)C)cc[n+]2CCO)C(C)(C)CCC1 [A2E, di-retinoid-pyridinium-ethanolamine]
intracellular ROS production [4]: did not induce overproduction of intracellular ROS | cell death [5, 13]: neither atROL, atRA nor A2E induced cell death

COc1cc(C(C)=O)ccc1O [APO, Apocynin]
atRAL-induced intracellular ROS generation ([4]; APO applied to ARPE19 cells together with atRAL): inhibited atRAL-induced intracellular ROS generation | ROS production in the ONL / photoreceptors (DHE signal) [1]: substantially decreased ROS production | retinal / photoreceptor morphology by OCT imaging [6]: well-preserved retinal morphology | retinal histology / immunohistochemistry (rhodopsin, PNA, DAPI; ONL) [2]: nearly intact retinal morphology | ARPE19 cell survival ([5]; APO together with atRAL): improved ARPE19 cell survival | retinal function by ERG (a-wave and b-wave amplitudes) [7]: protective effect

N=C(N)N/N=C/c1c(Cl)cccc1Cl [Guanbenz]
ROS generation in photoreceptors (DHE signal) [1]: decreased | retinal / photoreceptor morphology by OCT imaging ([6]; listed as GUB): significantly prevented; also recorded: dose-dependent fashion | half maximal effective (protective) dose ([6]; protection from bright light-induced degeneration, dose-response, FIG. 25A/B): 0.3 mg/kg | retinal histology / immunohistochemistry (rhodopsin, PNA, DAPI; ONL) [2]: substantially preserved photoreceptor morphology | retinal autofluorescence spots by SLO imaging [8]: markedly less autofluorescence spots | retinal morphology / ONL (OCT, histology) [9]: retinal morphology of drug-treated mice was maintained | autofluorescent spots by SLO [10]: prevented | Eye ± SD [11]: 13.1 ± 4.7 pmol/eye | concentration at 30 min [11]: 70 ± 18 nM | amount in eye compared with level in 0.1 mL of serum ([11]; listed as GUB): comparable

Nc1ncnc2c1ncn2C1CCCO1 (stereo not drawn) [SQ 22536]
ROS generation in photoreceptors (DHE signal) [1]: decreased | retinal / photoreceptor morphology by OCT imaging [6]: protected retinas from light-induced degeneration in a dose-dependent manner | retinal histology / immunohistochemistry (rhodopsin, PNA, DAPI; ONL) [2]: substantially preserved photoreceptor morphology | retinal autofluorescence spots by SLO imaging [8]: dose-dependent effect | retinal morphology / ONL (OCT, histology) [9]: retinal morphology of drug-treated mice was maintained | autofluorescent spots by SLO [10]: prevented | Eye ± SD [11]: 5.6 ± 2.2 pmol/eye | concentration at 30 min [11]: 193 ± 55 nM | amount in eye compared with level in 0.1 mL of serum [11]: 5 times lower | ERG responses and 11-cis-retinal levels after bleaching [12]: no significant changes | retinal function by ERG (a-wave and b-wave amplitudes) ([7]; listed as SQ): substantial preservation of the scotopic ERG response; also recorded: substantial preservation of this response

CC1=C(/C=C/C(C)=C/C=C/C(C)=C/C(=O)O)C(C)(C)CCC1 [atRA, all-trans-retinoic acid]
intracellular ROS production [4]: did not induce overproduction of intracellular ROS | cell death ([5]; human, 24 h): neither atROL, atRA nor A2E induced cell death

CC1=C(/C=C/C(C)=C/C=C/C(C)=C/CO)C(C)(C)CCC1 [atROL, all-trans-retinol]
intracellular ROS production [4]: did not induce overproduction of intracellular ROS | cell death [5, 13]: neither atROL, atRA nor A2E induced cell death
